Patent US10123993B2, “Cyclic ureas as inhibitors of rock” (BRISTOL-MYERS SQUIBB COMPANY, priority 2015, dated 2018)
pIC50: −log10 of the molar value. Counter-ions that a name gives are not always drawn.

Target: ROCK2 (Homo sapiens, UniProt O75116)
Assay: ROCK2 kinase inhibition assay (Caliper LABCHIP, FITC peptide substrate)
Type: biochemical
Conditions: 5 μM ATP, 1.5 μM peptide substrate; value ranges
Method in brief: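 Rho kinase with 5 μM ATP and 1.5 μM FITC-AHA-AKRRRLSSLRA-OH peptide in HEPES pH 7.5, 20 mM MgCl2, 0.015% Brij-35, 4 mM DTT, DMSO <2%. EDTA stop; phospho and non-phospho peptide separated on LabChip. IC50 from dose-response fit.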

Chain of ROCK2 (O75116 whole entry, species assumed): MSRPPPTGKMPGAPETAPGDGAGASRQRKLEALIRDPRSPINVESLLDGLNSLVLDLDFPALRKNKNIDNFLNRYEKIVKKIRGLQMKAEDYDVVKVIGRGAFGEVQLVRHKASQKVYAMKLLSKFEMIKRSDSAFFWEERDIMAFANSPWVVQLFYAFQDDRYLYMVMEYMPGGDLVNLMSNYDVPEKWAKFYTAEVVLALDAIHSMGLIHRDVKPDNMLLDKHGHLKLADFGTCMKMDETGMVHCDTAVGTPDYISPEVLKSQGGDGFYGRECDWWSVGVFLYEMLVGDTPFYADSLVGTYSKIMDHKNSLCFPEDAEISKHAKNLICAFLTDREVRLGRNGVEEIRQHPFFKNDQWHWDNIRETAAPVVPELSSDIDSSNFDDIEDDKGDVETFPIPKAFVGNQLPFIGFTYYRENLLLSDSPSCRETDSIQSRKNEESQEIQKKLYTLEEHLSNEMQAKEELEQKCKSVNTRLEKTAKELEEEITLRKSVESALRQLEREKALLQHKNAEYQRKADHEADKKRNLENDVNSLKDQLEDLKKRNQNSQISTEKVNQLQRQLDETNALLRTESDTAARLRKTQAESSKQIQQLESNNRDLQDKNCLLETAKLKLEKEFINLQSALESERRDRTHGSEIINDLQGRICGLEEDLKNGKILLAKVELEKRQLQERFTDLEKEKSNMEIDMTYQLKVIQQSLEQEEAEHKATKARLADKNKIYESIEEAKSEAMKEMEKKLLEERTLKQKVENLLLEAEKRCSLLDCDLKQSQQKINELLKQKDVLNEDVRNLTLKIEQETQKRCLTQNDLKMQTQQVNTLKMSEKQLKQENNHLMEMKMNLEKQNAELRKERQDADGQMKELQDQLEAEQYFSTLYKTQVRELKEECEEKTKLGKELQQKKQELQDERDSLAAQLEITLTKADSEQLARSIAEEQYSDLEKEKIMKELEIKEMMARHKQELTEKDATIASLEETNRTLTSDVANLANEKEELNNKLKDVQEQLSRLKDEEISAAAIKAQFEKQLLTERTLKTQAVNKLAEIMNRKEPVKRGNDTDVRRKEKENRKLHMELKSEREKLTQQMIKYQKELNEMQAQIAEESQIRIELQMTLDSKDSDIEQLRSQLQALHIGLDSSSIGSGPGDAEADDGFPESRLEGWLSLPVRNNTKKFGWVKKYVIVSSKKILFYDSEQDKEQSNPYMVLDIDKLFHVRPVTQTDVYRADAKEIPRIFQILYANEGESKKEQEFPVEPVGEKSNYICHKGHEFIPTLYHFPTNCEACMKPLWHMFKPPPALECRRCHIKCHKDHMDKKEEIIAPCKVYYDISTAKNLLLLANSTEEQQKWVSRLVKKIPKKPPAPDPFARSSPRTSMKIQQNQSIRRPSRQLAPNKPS

SMILES	pIC50
O=C1CN(Cc2ccccc2F)C(=O)N1c1ccc(-c2cn[nH]c2)cc1 [Example 86, 3-(4-(1H-pyrazol-4-yl)phenyl)-1-(2-fluorobenzyl)imidazolidine-2,4-dione]	5.70 to 6.70
COc1cc(F)ccc1Cn1ccn(-c2ccc(-c3cn[nH]c3)cc2)c1=O [Example 412, 1-(4-(1H-pyrazol-4-yl)phenyl)-3-(4-fluoro-2-methoxybenzyl)-1H-imidazol-2(3H)-one]	5.70 to 6.70
COc1cc(N2C(=O)CN(C(C)c3ccccc3)C2=O)ccc1-c1cn[nH]c1 (stereo not shown) [Example 96, 3-(3-methoxy-4-(1H-pyrazol-4-yl)phenyl)-1-(1-phenylethyl)imidazolidine-2,4-dione]	5.70 to 6.70
COc1cccc(C(CO)N2CCN(c3ccc(-c4cn[nH]c4)cn3)C2=O)c1 (stereo not shown) [Example 442, 1-(5-(1H-pyrazol-4-yl)pyridin-2-yl)-3-(2-hydroxy-1-(3-methoxyphenyl)ethyl)imidazolidin-2-one]	5.70 to 6.70
CC(c1cccc(OCC2CC2)c1)N1CCN(c2ccc(-c3cn[nH]c3)cc2)C1=O (single isomer, unassigned) [Example 195, 1-(4-(1H-pyrazol-4-yl)-phenyl)-3-(1-(3-(cyclo-propyl-methoxy)-phenyl)-ethyl)-imidazolidin-2-one]	5.70 to 6.70
O=C1CN(c2ccc(-c3cn[nH]c3)cc2)C(=O)N1CCc1ccccc1 [Example 113, 1-(4-(1H-pyrazol-4-yl)phenyl)-3-phenethyl-imidazolidine-2,4-dione]	6.70 to 7.70
COc1cccc(C(CO)N2CCN(c3ccc(-c4cn[nH]c4)c(C)c3)C2=O)c1 (single isomer, unassigned) [Example 164, 1-(2-hydroxy-1-(3-methoxy-phenyl)ethyl)-3-(3-methyl-4-(1H-pyrazol-4-yl)phenyl) imidazolidin-2-one]	5.70 to 6.70
COc1cc(F)cc(CN2C(=O)N(c3ccc(-c4cn[nH]c4)cn3)C[C@@H]2CO)c1 [Example 313, (R)-1-(5-(1H-pyrazol-4-yl)pyridin-2-yl)-3-(3-fluoro-5-methoxybenzyl)-4-(hydroxymethyl)imidazolidin-2-one]	6.70 to 7.70
COc1ccccc1CCn1ccn(-c2ccc(-c3cn[nH]c3)cc2)c1=O [Example 66, 1-(4-(1H-Pyrazol-4-yl)phenyl)-3-(2-methoxyphenethyl)-1H-imidazol-2(3H)-one]	5.70 to 6.70
O=C1N(Cc2ccc(F)cc2)CCN1c1ccc(-c2cn[nH]c2)cc1 [Example 5, 1-(4-(1H-pyrazol-4-yl)phenyl)-3-(4-fluorobenzyl)imidazolidin-2-one]	6.70 to 7.70
O=C1N(Cc2cccc(F)c2)CCN1c1ccc(-c2ccncc2)cc1 [Example 56, 1-(3-fluorobenzyl)-3-(4-(pyridin-4-yl)phenyl)imidazolidin-2-one, TFA]	6.70 to 7.70
COc1cc(F)cc(CN2CCN(c3ccc(-c4cn[nH]c4)nc3)C2=O)c1 [Example 437, 1-(6-(1H-pyrazol-4-yl)pyridin-3-yl)-3-(3-fluoro-5-methoxybenzyl)imidazolidin-2-one]	6.70 to 7.70
COc1cc(CN2CCN(c3ccc(-c4cn[nH]c4)c(C(F)(F)F)c3)C2=O)ccc1F [Example 283, 1-(4-(1H-pyrazol-4-yl)-3-(trifluoromethyl)phenyl)-3-(4-fluoro-3-methoxybenzyl)imidazolidin-2-one]	5.70 to 6.70
O=C1N(Cc2cccc(Cl)c2)CCN1c1ccc(-c2cn[nH]c2)cn1 [Example 237, 1-(5-(1H-pyrazol-4-yl)pyridin-2-yl)-3-(3-chlorobenzyl)imidazolidin-2-one]	6.70 to 7.70
COc1cccc(CN2CCN(c3ccc(-c4cn[nH]c4)c(C(F)(F)F)c3)C2=O)c1 [Example 275, 1-(4-(1H-pyrazol-4-yl)-3-(trifluoromethyl)phenyl)-3-(3-methoxybenzyl)imidazolidin-2-one]	6.70 to 7.70
O=c1n(Cc2ccc(F)cc2F)ccn1-c1ccc(-c2cn[nH]c2)cc1 [Example 409, 1-(4-(1H-pyrazol-4-yl)phenyl)-3-(2,4-difluorobenzyl)-1H-imidazol-2(3H)-one]	6.70 to 7.70
COc1cccc(C(C(=O)NC2CC2)N2CCN(c3ccc(-c4cn[nH]c4)cc3)C2=O)c1 (single isomer, unassigned) [Example 300, 2-(3-(4-(1H-pyrazol-4-yl)phenyl)-2-oxoimidazolidin-1-yl)-N-cyclopropyl-2-(3-methoxyphenyl)acetamide]	6.70 to 7.70
COc1cc(F)cc(CN2CCN(c3ccc(-c4cn[nH]c4)c(C4CC4)c3)C2=O)c1 [Example 469, 1-(3-cyclopropyl-4-(1H-pyrazol-4-yl)phenyl)-3-(3-fluoro-5-methoxybenzyl)imidazolidin-2-one]	6.70 to 7.70

Other lines, results leading:

pIC50	SMILES
7.70 to 8.68	COc1cc(F)cc(C(C)n2ccn(-c3ccc(-c4cn[nH]c4)cn3)c2=O)c1 (single isomer, unassigned) [Example 393, 1-(5-(1H-pyrazol-4-yl)pyridin-2-yl)-3-(1-(3-fluoro-5-methoxyphenyl)ethyl)-1H-imidazol-2(3H)-one]
> 8.70	COc1nc(N2CCN(Cc3cccc(F)c3)C2=O)ccc1-c1cn[nH]c1 [Example 226, 1-(3-fluorobenzyl)-3-(6-methoxy-5-(1H-pyrazol-4-yl)pyridin-2-yl)imidazolidin-2-one]
7.70 to 8.68	COc1nc(N2CCN(Cc3cccc(OC(F)F)c3)C2=O)ccc1-c1cn[nH]c1 [Example 233, 1-(3-(difluoromethoxy)benzyl)-3-(6-methoxy-5-(1H-pyrazol-4-yl)pyridin-2-yl)imidazolidin-2-one]
7.70 to 8.68	CCc1cc(N2CCN(Cc3ccc(F)c(OC)c3)C2=O)ccc1-c1cn[nH]c1 [Example 281, 1-(3-ethyl-4-(1H-pyrazol-4-yl)phenyl)-3-(4-fluoro-3-methoxybenzyl)imidazolidin-2-one]
7.70 to 8.68	CCOc1cccc(C(C)n2ccn(-c3ccc(-c4cn[nH]c4)cn3)c2=O)c1 (single isomer, unassigned) [Example 370, 1-(5-(1H-pyrazol-4-yl)pyridin-2-yl)-3-(1-(3-ethoxyphenyl)ethyl)-1H-imidazol-2(3H)-one]
> 8.70	COc1cccc(C(C)n2ccn(-c3ccc(-c4cn[nH]c4)c(OC)n3)c2=O)c1 (single isomer, unassigned) [Example 400, 1-(6-methoxy-5-(1H-pyrazol-4-yl)pyridin-2-yl)-3-(1-(3-methoxyphenyl)ethyl)-1H-imidazol-2(3H)-one]
> 8.70	COc1cccc(CN2C(=O)N(c3ccc(-c4cn[nH]c4)cn3)CC2(C)C)c1 [Example 451, 1-(5-(1H-pyrazol-4-yl)pyridin-2-yl)-3-(3-methoxybenzyl)-4,4-dimethylimidazolidin-2-one]
7.70 to 8.68	COc1nc(-n2ccn(Cc3cc(F)ccc3F)c2=O)ccc1-c1cn[nH]c1 [Example 415, 1-(2,5-difluorobenzyl)-3-(6-methoxy-5-(1H-pyrazol-4-yl)pyridin-2-yl)-1H-imidazol-2(3H)-one]
6.70 to 7.70	CCOc1cccc(C(C)n2ccn(-c3ccc(-c4cn[nH]c4)c(CC)n3)c2=O)c1 (single isomer, unassigned) [Example 364, 1-(1-(3-ethoxyphenyl)ethyl)-3-(6-ethyl-5-(1H-pyrazol-4-yl)pyridin-2-yl)-1H-imidazol-2(3H)-one]
6.70 to 7.70	O=c1n(CCc2ccccc2F)ccn1-c1ccc(-c2cn[nH]c2)cc1 [Example 330, 1-(4-(1H-pyrazol-4-yl)phenyl)-3-(2-fluorophenethyl)-1H-imidazol-2(3H)-one]
7.70 to 8.68	COc1cccc(CN2C(=O)N(c3ccc(-c4cn[nH]c4)cn3)C[C@@H]2CO)c1 [Example 474, (R)-1-(5-(1H-pyrazol-4-yl)pyridin-2-yl)-4-(hydroxymethyl)-3-(3-methoxybenzyl)imidazolidin-2-one]
6.70 to 7.70	O=C1N(Cc2ccccc2)CCN1c1ccc(-c2cnoc2)cc1 [Example 60, 1-benzyl-3-(4-(isoxazol-4-yl)phenyl)imidazolidin-2-one]
7.70 to 8.68	COc1cccc(C(C)n2ccn(-c3ccc(-c4ccnc5[nH]ccc45)cc3)c2=O)c1 (single isomer, unassigned) [Example 326, 1-(4-(1H-Pyrrolo[2,3-b]pyridin-4-yl)phenyl)-3-(1-(3-methoxyphenyl)ethyl)-1H-imidazol-2(3H)-one]
6.70 to 7.70	COc1cccc(C(C)N2CCN(c3cc(C)c(-c4cn[nH]c4)cn3)C2=O)c1 (single isomer, unassigned) [Example 471, 1-(1-(3-methoxyphenyl)ethyl)-3-(4-methyl-5-(1H-pyrazol-4-yl)pyridin-2-yl)imidazolidin-2-one]
6.70 to 7.70	COc1cccc(C(C)n2ccn(-c3ccc(-c4ccnc5[nH]ccc45)cc3)c2=O)c1 (single isomer, unassigned) [Example 325, 1-(4-(1H-Pyrrolo[2,3-b]pyridin-4-yl)phenyl)-3-(1-(3-methoxyphenyl)ethyl)-1H-imidazol-2(3H)-one]
7.70 to 8.68	COc1cccc(C(CO)N2CCN(c3ccc(-c4cn[nH]c4)c(C)n3)C2=O)c1 (single isomer, unassigned) [Example 161, 1-(2-hydroxy-1-(3-methoxy-phenyl)ethyl)-3-(6-methyl-5-(1H-pyrazol-4-yl)pyridin-2-yl)imidazolidin-2-one]
7.70 to 8.68	COc1cccc(C(CO)N2CCN(c3ccc(-c4cn[nH]c4)c(F)c3)C2=O)c1 (stereo not shown) [Example 463, 1-(3-fluoro-4-(1H-pyrazol-4-yl)phenyl)-3-(2-hydroxy-1-(3-methoxyphenyl)ethyl)imidazolidin-2-one]
7.70 to 8.68	COc1cccc(CN2C(=O)N(c3ccc(-c4cn[nH]c4)cn3)C[C@H]2CO)c1 [Example 314, (S)-1-(5-(1H-pyrazol-4-yl)pyridin-2-yl)-4-(hydroxymethyl)-3-(3-methoxybenzyl)imidazolidin-2-one]
7.70 to 8.68	CNc1nc(N2CCN(Cc3cc(F)cc(OC)c3)C2=O)ccc1-c1cn[nH]c1 [Example 200, 1-(3-fluoro-5-methoxy-benzyl)-3-(6-(methyl-amino)-5-(1H-pyrazol-4-yl)pyridin-2-yl)-imidazolidin-2-one]
